Source: patent US20150141411A1, “SUBSTITUTED 3,4-DIHYDRO-2H-PYRIDO[1,2-A]PYRAZINE-1,6-DIONE DERIVATIVES USEFUL FOR THE TREATMENT OF (INTER ALIA) ALZHEIMER'S DISEASE” (Janssen Pharmaceuticals, Inc., priority 2012, published 2015)
Counter-ions that a name gives are not always drawn.

Tests used:
γ-secretase [1] = target: T1, γ-secretase (Homo sapiens, UniProt P49768); assay: Screening for γ-secretase-modulating activity: Aβ42 in supernatant of SKNBE2 cells carrying hAPP 695 wild type (Alphalisa); assay type: cell-based; details: SKNBE2 human neuroblastoma cells carrying hAPP 695 wild type, overnight incubation, Aβ42 in cell supernatant
T1 construct: endogenous in cells; host or cells: SKNBE2 human neuroblastoma cells (carrying hAPP 695 wild type as substrate)
Summary of the method: (§1)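 SKNBE2 neuroblastoma cells expressing wild-type hAPP 695 plated at 10^4 cells/well in Ultraculture with test compound, incubated overnight at 37° C. Aβ42 (C-terminal/N-terminal antibody pair) and Aβtotal (N-terminal/4G8 pair) in supernatant quantified by AlphaLISA. IC50 from 4-parameter fit of percent of compound-free control.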

γ-secretase [2] = target: T1, γ-secretase; assay: Screening for γ-secretase-modulating activity: Aβtotal in supernatant of SKNBE2 cells carrying hAPP 695 wild type (Alphalisa); assay type: cell-based; details: SKNBE2 human neuroblastoma cells carrying hAPP 695 wild type, overnight incubation, Aβtotal in cell supernatant
Summary of the method: as §1

| Compound | melting point [°C] | IC50 (γ-secretase [1]) [nM] | IC50 (γ-secretase [2]) [nM] |
| --- | --- | --- | --- |
| Cc1cn(-c2ccc3n(c2=O)C[C@@H](C)N(C(C)c2cccc(OC(F)(F)F)c2)C3=O)cn1 (single isomer, unassigned) (as salt: HCl) [compound 147] | 232.9 |  |  |
| COc1cc(C(C)N2C(=O)c3ccc(-n4cnc(C)c4)c(=O)n3C[C@H]2C)cc(C(F)(F)F)c1 (single isomer, unassigned) (as salt: HCl) [compound 149] | 122 |  |  |
| Cc1cn(-c2ccc3n(c2=O)CCN(C(C)c2ccc(Cl)c(Cl)c2)C3=O)cn1 (single isomer, unassigned) [9a] | 206.8 | 4470 | > 10000 |
| Cc1cn(-c2ccc3n(c2=O)CCN(C(C)c2cccc(Cl)c2Cl)C3=O)cn1 (single isomer, unassigned) [10b] | 206.4 | 6610 | > 10000 |
| Cc1cn(-c2ccc3n(c2=O)CCN(C(C)c2cccc(C(F)(F)F)c2)C3=O)cn1 (single isomer, unassigned) [11a] | 181.1 | 660 | > 10000 |
| Cc1cn(-c2ccc3n(c2=O)CCN(C(C)c2cccc(C(F)(F)F)c2)C3=O)cn1 (single isomer, unassigned) [11b] | 181 | 7760 | > 10000 |
| Cc1cn(-c2ccc3n(c2=O)CCN(C(C)c2cn(C)c4cc(F)c(Cl)cc24)C3=O)cn1 (single isomer, unassigned) [compound 186] | 261 | 780 | > 10000 |
| Cc1cn(-c2ccc3n(c2=O)CC(C)N(C(C)c2cn(C)c4cc(F)c(Cl)cc24)C3=O)cn1 (single isomer, unassigned) [compound 190] | 255 | 10 | 3310 |
| Cc1cn(-c2ccc3n(c2=O)CCN(C(C)c2cc(Cl)cc(Cl)c2)C3=O)cn1 (single isomer, unassigned) [compound 208] | 206 | 3890 | > 10000 |
| Cc1cn(-c2ccc3n(c2=O)C[C@@H](C)N(C(C)c2cc(Cl)cc(Cl)c2)C3=O)cn1 (single isomer, unassigned) [compound 211] | 146 | 90 | > 10000 |
| CCn1cc(C(C)N2C(=O)c3ccc(-n4cnc(C)c4)c(=O)n3CC2C)c2cc(Cl)cc(F)c21 (single isomer, unassigned) [compound 221] | 194 | 5 | 790 |
| Cc1cn(-c2ccc3n(c2=O)CC(C)N(C(C)c2cn(C)c4c(F)cc(Cl)cc24)C3=O)cn1 (single isomer, unassigned) [compound 223] | 243 | 220 | 6610 |
| Cc1cn(-c2ccc3n(c2=O)CCN(CCC2CCCCC2)C3=O)cn1 [compound 18] | 192.6 | 1700 | > 10000 |
| Cc1cn(-c2ccc3n(c2=O)C[C@@H](C)N(CC2(c4ccccc4C)CC2)C3=O)cn1 [compound 20] | 199.8 | 1550 | > 10000 |
| Cc1cn(-c2ccc3n(c2=O)C[C@@H](C)N(Cc2ccccc2C)C3=O)cn1 [compound 21] | 163 | 1950 | > 10000 |
| Cc1cn(-c2ccc3n(c2=O)CCN(Cc2cccc(Cl)c2)C3=O)cn1 [compound 25] | 176.7 | 1700 | > 10000 |
| Cc1cn(-c2ccc3n(c2=O)CCN(CCc2ccc(Cl)cc2)C3=O)cn1 [compound 26] | 184.4 | 1660 | > 10000 |
| Cc1cn(-c2ccc3n(c2=O)CCN(CCOCc2ccc(Cl)cc2)C3=O)cn1 [compound 27] | 168 | 590 | > 10000 |
| Cc1cn(-c2ccc3n(c2=O)C[C@@H](C)N(CC2(c4ccc(Cl)cc4)CC2)C3=O)cn1 [compound 28] | 157.4 | 280 | > 10000 |
| Cc1cn(-c2ccc3n(c2=O)CCN(CC2(c4ccc(Cl)cc4)CC2)C3=O)cn1 [compound 29] | 227.1 | 270 | > 10000 |
| Cc1cn(-c2ccc3n(c2=O)CCN(C2CC2c2ccc(Cl)cc2)C3=O)cn1 (stereo not shown) [compound 30] | 168.5 | 2040 | > 10000 |
| Cc1cn(-c2ccc3n(c2=O)C[C@@H](C)N(Cc2cccc(Cl)c2F)C3=O)cn1 [compound 35] | 182.2 | 1020 | > 10000 |
| Cc1cn(-c2ccc3n(c2=O)CCN(Cc2cccc(Cl)c2Cl)C3=O)cn1 [compound 36] | 224.9 | 510 | > 10000 |
| Cc1cn(-c2ccc3n(c2=O)CCN(Cc2ccc(Cl)c(Cl)c2)C3=O)cn1 [compound 38] | 190.8 | 330 | 3630 |
| Cc1cn(-c2ccc3n(c2=O)C[C@@H](C)N(Cc2cccc(Cl)c2C)C3=O)cn1 [compound 40] | 182.1 | 510 | > 10000 |

| Compound | melting point [°C] | IC50 (γ-secretase [1]) [nM] | IC50 (γ-secretase [2]) [nM] |
| --- | --- | --- | --- |
| Cc1cn(-c2ccc3n(c2=O)CCN(Cc2cccc(C(F)(F)F)c2)C3=O)cn1 [compound 42] | 183.4 | 740 | > 10000 |
| Cc1cn(-c2ccc3n(c2=O)C[C@@H](C)N(Cc2ccc(C(F)(F)F)cc2)C3=O)cn1 [compound 43] | 164.9 | 620 | > 10000 |
| Cc1cn(-c2ccc3n(c2=O)CCN(Cc2cc(C(F)(F)F)cc(C(F)(F)F)c2)C3=O)cn1 [compound 53] | 219 | 210 | > 10000 |
| Cc1cn(-c2ccc3n(c2=O)CCN(c2cccc(C(F)(F)F)c2F)C3=O)cn1 [compound 55] | 227.5 | 3800 | > 10000 |
| Cc1cn(-c2ccc3n(c2=O)CCN(Cc2cccc(C(F)(F)F)c2F)C3=O)cn1 [compound 56] | 197.6 | 1700 | > 10000 |
| Cc1cn(-c2ccc3n(c2=O)CCN(c2cccc(C(F)(F)F)c2C)C3=O)cn1 [compound 57] | 248.6 | > 10000 | > 10000 |
| Cc1cn(-c2ccc3n(c2=O)CCN(Cc2cccc(C(F)(F)F)c2C)C3=O)cn1 [compound 58] | 199.4 | 830 | > 10000 |
| COc1ccc(CN2C(=O)c3ccc(-n4cnc(C)c4)c(=O)n3C[C@H]2C)cc1C(F)(F)F [compound 67] | 140.2 | 560 | > 10000 |
| COc1cc(CN2C(=O)c3ccc(-n4cnc(C)c4)c(=O)n3C[C@H]2C)cc(C(F)(F)F)c1 [compound 68] | 132.4 | 190 | > 10000 |
| COc1ccc(CN2CCn3c(ccc(-n4cnc(C)c4)c3=O)C2=O)cc1C(F)(F)F [compound 69] | 177 | 1020 | > 10000 |
| Cc1cn(-c2ccc3n(c2=O)C[C@@H](C)N(Cc2cc(C(F)(F)F)ccc2F)C3=O)cn1 [compound 70] | 108.5 | 580 | > 10000 |
| Cc1cn(-c2ccc3n(c2=O)CCN(Cc2ccc(F)cc2C)C3=O)cn1 [compound 73] | 227.4 | 2570 | > 10000 |
| Cc1cn(-c2ccc3n(c2=O)CCN(Cc2cccc(OC(F)(F)F)c2)C3=O)cn1 [compound 74] | 163.4 | 380 | > 10000 |
| Cc1cn(-c2ccc3n(c2=O)CCN(Cc2ccc(OC(F)(F)F)cc2C)C3=O)cn1 [compound 75] | 214.1 | 980 | > 10000 |
| Cc1cn(-c2ccc3n(c2=O)C[C@@H](C)N(Cc2cccc(N4CCCCC4)c2)C3=O)cn1 [compound 84] | 108.2 | 230 | > 10000 |
| Cc1cn(-c2cc(Cl)c3n(c2=O)CCN(Cc2cccc(-c4ccccc4)c2)C3=O)cn1 [compound 88] | 136.5 | 1860 | > 10000 |
| Cc1cncn1-c1ccc2n(c1=O)CCN(Cc1ccccc1)C2=O [compound 89] | 146.5 | > 10000 | > 10000 |
| Cc1cn(-c2ccc3n(c2=O)CCN(Cc2cccc(-c4ccc(F)cc4C(F)(F)F)c2)C3=O)cn1 [compound 90] | 138 to 143 | 70 | > 10000 |
| Cc1cn(-c2ccc3n(c2=O)CCN(Cc2ccc4c(c2)OCCCO4)C3=O)cn1 [compound 93] | 192.2 | 6760 | > 10000 |
| Cc1cn(-c2ccc3n(c2=O)CCN(Cc2cccc(N4CCOCC4)c2)C3=O)cn1 [compound 95] | 181.6 | 7590 | > 10000 |
| Cc1cn(-c2ccc3n(c2=O)CCN(Cc2cccc(N4CCCCC4)c2)C3=O)cn1 [compound 96] | 163.6 | 760 | > 10000 |
| Cc1cn(-c2ccc3n(c2=O)CCN(Cc2cccc(N4CCCCC4)c2C)C3=O)cn1 [compound 97] | 207.8 | 440 | > 10000 |
| Cc1cn(-c2ccc3n(c2=O)CCN(Cc2ccccc2N2CCCCC2)C3=O)cn1 [compound 100] | 167.4 | 760 | > 10000 |
| Cc1cn(-c2ccc3n(c2=O)CCN(Cc2c[nH]c4c(Cl)cc(Cl)cc24)C3=O)cn1 [compound 260] | 208 | 30 |  |
